According to patent US20260078103A1, “ISOQUINOLONES AS PI3K INHIBITORS” (OnKure, Inc., priority 2022, published 2026):
Where two headings read alike, the source gives them in different places.

What was measured:
Type in all cases: cell-based
[1] = system: T47D cells expressing mutant PI3Ka (H1047R); experiment: In vitro cell proliferation, T47D cells (CellTiter-Glo); details: inhibition of proliferation, read-out: Avg T-47D EC50
Protocol: (§1) In Vitro Cell Proliferation: Determination of EC50 Values for Inhibition of Proliferation in T47D Cells Expressing Mutant PI3Ka (H1047R) Mutation and SKBR3 Cells Express WT PI3Ka.
(§2) T47D or SKBR3 cells were trypsinized, resuspended in culture media and seeded onto assay ready plates. T47D culture media consisted of RPMI, 10% FBS and Insulin (0.2 units/mL). SKBR3 culture media consisted of McCoys 5a and 10% FBS. Cells were seeded at a density of 1,500 cells/well and dispensed in 50 μl onto 384 well assay ready plates (Corning, 89089-790). Assay ready plates had previously been stamped with 10-point dilutions of compounds of interest, as well as controls. The Echo655 is used to stamp plates at 40 nL of compound or DMSO. Cells were grown for 72 hours at 37° Celsius and 5% CO2. After 72 hours, cells were equilibrated at room temperature for 15 minutes. 30 μL of CellTiter-Glo reagent is added to the plate, which is then shaken for 30 minutes at temperature at 300-500 rpm. Cells are then read on an Envision plate reader. The percentage of inhibition of proliferation was calculated using the following formula: % Inhibition=100×(LumD−Lumsample)/(LumD−Lumlnh), where D is obtained from cells treated with 0.1% DMSO only; lnh is obtained from cells treated with 10 uM Alpelisib. The effective concentration achieving 50% inhibition of proliferation (EC50) is calculated by fitting the Curve using Xlfit (v5.3.1.3), equation 201: Y=Bottom+(Top−Bottom)/(1+10^((LogEC50−X)*HillSlope)).

[2] = system: SKBR3 cells express WT PI3Ka; experiment: In vitro cell proliferation, SKBR3 cells (CellTiter-Glo); details: inhibition of proliferation
Protocol: as §1, §2

[3] = system: phosphorylation of AKT (pAKT) in SKBR3 cells express WT PI3Ka; experiment: In vitro cell pAKT (Ser473) HTRF, SKBR3 cells; details: cellular pAKT
Protocol: (§3) In Vitro Cell pAKT: Determination of IC50 Values for Inhibition of Phosphorylation of AKT (pAKT) in T47D Cells Expressing Mutant PI3Ka (H1047R) Mutation and SKBR3 Cells Express WT PI3Ka.
(§4) T47D or SKBR3 cells were trypsinized, resuspended in culture media and seeded onto assay ready plates. T47D culture media consisted of RPMI, 10% FBS and Insulin (0.2 units/mL). SKBR3 culture media consisted of McCoy's 5a and 10% FBS. Cells were seeded at a density of 5000 cells/well and dispensed in 12.5 μL onto 384 well assay ready plates (Perkin Elmer, 6008238)). Assay ready plates had previously been stamped with 10-point dilutions of compounds of interest, as well as controls. The Echo655 is used to stamp plates at 12.5 nL of compound or DMSO. Cells were grown for 6 hours at 37° Celsius and 5% CO2. After 6 hours, 4 μL of Lysis buffer reagent was added to the plate, which was then centrifuged for 1 minute at 1000 rpm. Then the plate was incubated at room temperature for 30 minutes. After 30 minutes, 4 μL of antibody mix containing Eu Cryptate, d2 Cryptate, and detection buffer, was added to the plate. The plate was centrifuged for 1 minute at 1000 rpm and then incubated overnight at room temperature. The plate was read on an Envision plate reader using the HTRF protocol. The percentage of inhibition of AKT phosphorylation was calculated using the following formula: % Inhibition=100×(pAKTHC−pAKTSample)/(pAKTHC−pAKTLC)), where pAKTHC is obtained from cells treated with 0.1% DMSO only; PAKTLC is obtained from cells treated with 10 uM Alpelisib. The IC50 (concentration achieving 50% inhibition of pAKT) is calculated by fitting the Curve using XIfit (v5.3.1.3), equation 201: Y=Bottom+(Top−Bottom)/(1+10^((LogIC50−X)*HillSlope)).

[4] = system: phosphorylation of AKT (pAKT) in T47D cells expressing mutant PI3Ka (H1047R); experiment: In vitro cell pAKT (Ser473) HTRF, T47D cells; details: cellular pAKT, T47D cells, mutant PI3Ka (H1047R), 6 hours, read-out: Avg T-47D IC50
Protocol: as §3, §4

Compound | EC50 ([1]; 72 hours) [µM] | EC50 ([2]; Homo sapiens, SK-BR-3, 72 h) [µM] | IC50 ([3]; Homo sapiens, SK-BR-3, 6 h) [µM] | IC50 [4] [µM] | EC50 ([2]; 72 hours) [µM] | IC50 ([3]; 6 hours) [µM] | IC50 ([4]; Homo sapiens, T47D, 6 h) [µM] | EC50 ([1]; Homo sapiens, T47D, 72 h) [µM]
Cc1cc(C(CF)Nc2ccccc2C(=O)O)c2cc(N3CCN(CC(F)(F)F)CC3)n(C)c(=O)c2c1 (single isomer, unassigned) [Example 37, 2-((1-(2,7-dimethyl-1-oxo-3-(4-(2,2,2-trifluoroethyl)piperazin-1-yl)-1,2-dihydroisoquinolin-5-yl)-2-fluoroethyl)amino)benzoic acid] | 2 to 15 | > 15 | > 15 | 2 to 15 | – | – | – | –
Cc1cc(C(CF)Nc2ccccc2C(=O)O)c2cc(N3CCN(CC(F)(F)F)CC3)n(C)c(=O)c2c1 (single isomer, unassigned) [Example 38, 2-((1-(2,7-dimethyl-1-oxo-3-(4-(2,2,2-trifluoroethyl)piperazin-1-yl)-1,2-dihydroisoquinolin-5-yl)-2-fluoroethyl)amino)benzoic acid] | 0.001 to 0.5 | – | – | 0.001 to 0.5 | > 15 | > 15 | – | –
Cc1cc(C(C)Nc2ccccc2C(=O)O)c2cc(N3Cc4ccc(F)cc4C3)n(C)c(=O)c2c1 (single isomer, unassigned) [Example 49] | 0.001 to 0.5 | > 15 | > 15 | – | – | – | 0.001 to 0.5 | –
Cc1cc(C(C)Nc2ccccc2C(=O)O)c2cc(N3CC(c4ccccc4)C3)n(C)c(=O)c2c1 (single isomer, unassigned) [Example 76] | > 15 | > 15 | > 15 | > 15 | – | – | – | –
Cc1cc(C(C)Nc2ccccc2C(=O)O)c2cc(N3CC(c4ccccc4)C3)n(C)c(=O)c2c1 (single isomer, unassigned) [Example 77] | 0.5 to 2 | – | – | 0.001 to 0.5 | > 15 | > 15 | – | –
Cc1cc(C(C)Nc2ccccc2C(=O)O)c2cc(N3CC(Cl)C3)n(C)c(=O)c2c1 (single isomer, unassigned) [Example 78] | 2 to 15 | > 15 | > 15 | > 15 | – | – | – | –
Cc1cc(C(C)Nc2ccccc2C(=O)O)c2cc(N3CC(Cl)C3)n(C)c(=O)c2c1 (single isomer, unassigned) [Example 79] | 0.001 to 0.5 | – | – | 0.001 to 0.5 | > 15 | > 15 | – | –
Cc1cc(C(C)Nc2ccccc2C(=O)O)c2cc(N3CC4(C3)CC(F)(F)C4)n(C)c(=O)c2c1 (single isomer, unassigned) [Example 80] | > 15 | > 15 | > 15 | > 15 | – | – | – | –
Cc1cc(C(C)Nc2ccccc2C(=O)O)c2cc(N3CC4(C3)CC(F)(F)C4)n(C)c(=O)c2c1 (single isomer, unassigned) [Example 81] | 0.5 to 2 | – | – | 0.001 to 0.5 | > 15 | > 15 | – | –
Cc1cc(C(C)Nc2ccccc2C(=O)O)c2cc(N3CC4(CC(C(F)(F)F)C4)C3)n(C)c(=O)c2c1 (single isomer, unassigned) [Example 82] | 0.5 to 2 | > 15 | > 15 | 0.001 to 0.5 | – | – | – | –
Cc1cc(C(C)Nc2ccccc2C(=O)O)c2cc(N3CC4(CC(C(F)(F)F)C4)C3)n(C)c(=O)c2c1 (single isomer, unassigned) [Example 83] | 2 to 15 | – | – | > 15 | > 15 | > 15 | – | –
Cc1cc(C(C)Nc2ccccc2C(=O)O)c2cc(N3Cc4cccc(C(F)(F)F)c4C3)n(C)c(=O)c2c1 (single isomer, unassigned) [Example 92] | 0.5 to 2 | > 15 | > 15 | 0.001 to 0.5 | – | – | – | –
Cc1cc(C(C)Nc2ccccc2C(=O)O)c2cc(N3Cc4cccc(C(F)(F)F)c4C3)n(C)c(=O)c2c1 (single isomer, unassigned) [Example 93] | 2 to 15 | – | – | > 15 | > 15 | > 15 | – | –
Cc1cc(C(C)Nc2ccccc2C(=O)O)c2cc(N3CCC4(CCN(CC(F)(F)F)C4)CC3)n(C)c(=O)c2c1 (single isomer, unassigned) [Example 96] | 0.001 to 0.5 | – | > 15 | 0.001 to 0.5 | 2 to 15 | – | – | –
Cc1cc(C(C)Nc2ccccc2C(=O)O)c2cc(N3CCC4(CCN(CC(F)(F)F)C4)CC3)n(C)c(=O)c2c1 (single isomer, unassigned) [Example 97] | 2 to 15 | – | – | 2 to 15 | > 15 | > 15 | – | –
Cc1cc(C(C)Nc2ccccc2C(=O)O)c2cc(N3C[C@@H]4CCCC[C@H]4C3)n(C)c(=O)c2c1 (single isomer, unassigned) [Example 100] | 0.001 to 0.5 | > 15 | > 15 | 0.001 to 0.5 | – | – | – | –
Cc1cc(C(C)Nc2ccccc2C(=O)O)c2cc(N3C[C@H]4CCCC[C@@H]4C3)n(C)c(=O)c2c1 (single isomer, unassigned) [Example 101] | – | > 15 | > 15 | – | – | – | > 15 | > 15
Cc1cc(C(C)Nc2ccccc2C(=O)O)c2cc(N3Cc4cc(F)cc(F)c4C3)n(C)c(=O)c2c1 (single isomer, unassigned) [Example 102] | 2 to 15 | > 15 | > 15 | > 15 | – | – | – | –
Cc1cc(C(C)Nc2ccccc2C(=O)O)c2cc(N3Cc4cc(F)cc(F)c4C3)n(C)c(=O)c2c1 (single isomer, unassigned) [Example 103] | 0.001 to 0.5 | – | – | 0.001 to 0.5 | > 15 | > 15 | – | –
Cc1cc(C(C)Nc2ccccc2C(=O)O)c2cc(N3CCC(c4ccccc4)C3)n(C)c(=O)c2c1 (single isomer, unassigned) [Example 104] | 2 to 15 | – | > 15 | > 15 | 2 to 15 | – | – | –
Cc1cc(C(C)Nc2ccccc2C(=O)O)c2cc(N3CCC(c4ccccc4)C3)n(C)c(=O)c2c1 (single isomer, unassigned) [Example 105] | 0.5 to 2 | – | – | 0.001 to 0.5 | > 15 | > 15 | – | –
Cc1cc(C(C)Nc2ccccc2C(=O)O)c2cc(N3Cc4ccncc4C3)n(C)c(=O)c2c1 (single isomer, unassigned) [Example 106] | 2 to 15 | > 15 | > 15 | > 15 | – | – | – | –
Cc1cc(C(C)Nc2ccccc2C(=O)O)c2cc(N3Cc4ccncc4C3)n(C)c(=O)c2c1 (single isomer, unassigned) [Example 107] | 0.001 to 0.5 | – | – | 0.001 to 0.5 | > 15 | > 15 | – | –
Cc1cc(C(C)Nc2ccccc2C(=O)O)c2cc(N3C[C@@H]4CN(CC(F)(F)F)C[C@H]4C3)n(C)c(=O)c2c1 (single isomer, unassigned) [Example 108] | 2 to 15 | – | – | > 15 | > 15 | > 15 | – | –
Cc1cc(C(C)Nc2ccccc2C(=O)O)c2cc(N3C[C@@H]4CN(CC(F)(F)F)C[C@H]4C3)n(C)c(=O)c2c1 (single isomer, unassigned) [Example 109] | 0.001 to 0.5 | – | – | 0.001 to 0.5 | 2 to 15 | > 15 | – | –
Cc1cc(C(C)Nc2ccccc2C(=O)O)c2cc(N3CCC4(CCN(CC(F)(F)F)CC4)CC3)n(C)c(=O)c2c1 (single isomer, unassigned) [Example 110] | 2 to 15 | – | – | > 15 | 2 to 15 | > 15 | – | –
